The subject of data set [1] is Zika virus, FSS 13025 strain (ZIKV, Cambodia 2010). Nature of the data set: Yield reduction assay followed by plaque assay in Vero cells, ZIKV Cambodia 2010. The data set is classed as cell-based. The note with it: for IC50: Zika virus, 96 h, read-out: ZIKV, Cambodian 2010 IC50; for IC50 (summary in words): summary of Table 3. On the procedure: (§1) The iminosugar compounds set forth in Table 4, below, were evaluated for antiviral activity against Zika virus, FSS 13025 strain (ZIKV, Cambodia 2010) and PR ABC strain (ZIKV, PR2015) in an yield reduction assay followed by a plaque assay.
In the yield reduction assay, Vero cells were seeded in 24-well plates and incubated overnight. The next day, serial dilutions of a given compound were prepared at 300 μM, 100 μM, 30 μM, 10 μM, and 3.0 μM. Growth medium was removed from the cells and the serial dilutions of the given compound were added in duplicate for one hour. Zika virus, FSS 13025 strain (ZIKV, Cambodia 2010) was added at a multiplicity of infection (MOI) of 0.01 for one hour. Growth medium was added to 1 mL and the cells were incubated for 4 days. Thereafter, cell supernatants were harvested, cleared of cell debris by centrifugation, and stored at −80° C. until further analysis for viral content in a plaque assay.
Plaque assays were performed by seeding Vero cells in 24-well plates and allowing the cells to adhere overnight. The next day each of the harvested supernatants from the yield-reduction assay were serially diluted 10-fold, growth medium was removed from the cells, and the adhered cells were infected with the dilutions of the supernatants for 1 h. Methylcellulose was added and the cells were incubated for 3 days. Plaques were visualized by staining the cell monolayer with crystal violet. Relative inhibition was calculated using IDBS XLFIT analysis program.
(§2) The duplicate titers for virus-only (vehicle control) were averaged and used as 0% inhibition. Efficacy data for the compounds were reported as the mean of the duplicates, including the standard deviation (SD) and coefficient of variation (% CV). FIGS. 2A, 2B, 3A, 3B, 4A, 4B, 5A, 5B, 6A, 6B, 7A, 7B, 8A, 8B, 9A, 9B, 10A, 10B, 11A, 11B, 12A, 12B, 13A, 13B, 14A, 14B, and 15 show the in vitro inhibitory effect of the iminosugar compounds against Zika virus, FSS 13025 strain, as set forth in Table 3 below.

The nature of data set [2]: In vitro cell cytotoxicity (CellTiter-Glo) in Vero cells. The following applies: African green monkey, 3-5 days, max concentration 500 or 1000 μM, * = average of two values. The data set is classed as cell-based.
For data set [3], the system named is Zika virus, PR ABC strain (ZIKV, PR2015). Nature of the data set: Yield reduction assay followed by plaque assay in Vero cells, ZIKV PR2015. The data set is classed as cell-based. The following applies: 120 h, read-out: ZIKV, PR2015 IC50. The method, then:
as §1
In the yield reduction assay, Vero cells were seeded in 24-well plates and incubated overnight. The next day, serial dilutions of a given compound were prepared at 200 μM, 100 μM, 20 μM, 4 μM, 0.8 μM, 0.16 μM, 0.03 μM, and 0.01 μM. Growth medium was removed from the cells and the serial dilutions of the given compound were added in duplicate for one hour. Zika virus, PR ABC strain (ZIKV, PR2015) was added at a multiplicity of infection (MOI) of 0.01 for one hour. Growth medium was added to 1 mL and the cells were incubated for 5 days. Thereafter, cell supernatants were harvested, cleared of cell debris by centrifugation, and stored at −80° C. until further analysis for viral content in a plaque assay.
Plaque assays were performed by seeding Vero cells in 24-well plates and allowing the cells to adhere overnight. The next day each of the harvested supernatants from the yield-reduction assay were serially diluted 10-fold, growth medium was removed from the cells, and the adhered cells were infected with the dilutions of the supernatants for 1 h. The cells were incubated with 0.8% carboxymethyl cellulose (CMC) for 3 days. At the end of the incubation, CMC overlay was removed, and the cells were permeabilized with an 80%/20% (V/V) mixture of ethanol and methanol for 10 min at −20° C. Plaques were visualized by performing an immunostaining assay with monoclonal 4G2 (ATCC) which was detected by HRP-conjugated goat anti-mouse antibody and visualized using HRP-conjugated goat anti-mouse polyclonal antibodies. Relative inhibition was calculated using IDBS XLFIT analysis program.
as §2

The subject of data set [4] is Zika virus (isolate FSS13025 of the Asian genotype). The data set can be described thus: Efficacy against lethal Zika virus infection in AG129 mice. The note with it: 1E2 FFU Zika virus, 750 mg/kg once daily for three days by oral gavage, starting 16 hours after exposure, vs vehicle (FIG. 1). In kind it is in vivo. The method, then:
AG129 mice, aged 5-7 weeks, of both sexes were divided into groups of eight mice each. Mice were infected with 1E2 FFU of Zika virus (isolate FSS13025 of the Asian genotype). The mice were treated 16 hours after exposure. One group was administered 750 mg/kg of UV-4 once daily for three days. UV-4 was formulated in water and all doses were administered via oral gavage in a volume of 100 μL. A control group was administered vehicle (water) only. Predefined study endpoints were mortality, euthanasia due to severe morbidity, or termination after 10 days total. Weights were measured and health scores were determined daily.

Setting [5] is: Vero cells, MOI 0.01, 4 days, plaque assay of supernatants, * = average of multiple data points.
[6] abbreviates: Vero cells, MOI 0.01, 5 days, plaque assay with immunostaining, * = average of multiple data points.

The structures appear in SMILES notation. Where two headings read alike, the source gives them in different places.

These results are taken from patent publication US20190282558A1, “Methods of Treating Zika Virus Infection” (Emergent Virology LLC, priority 2016, published 2019).

As usually defined, the IC50 is the concentration that inhibits the measured activity by half. By CC50 is commonly meant the concentration giving 50% cytotoxicity. Lower therefore signals harm at low concentration.

Take `[N-]=[N+]=Nc1ccc(NCCCCCCN2C[C@H](O)[C@@H](O)[C@H](O)[C@H]2CO)c([N+](=O)[O-])c1` [UV-5, (2R,3R,4R,5S)-1-(6-((4-azido-2-nitrophenyl)amino)hexyl)-2-(hydroxymethyl)piperidine-3,4,5-triol]: the 50% inhibitory concentration (IC50) in data set [1] (Vero) is 4.42 µM; in data set [3] (Vero) it was 5.24 µM. Moreover, the “IC50 (summary in words)” value in data set [1] is reported as “low micromolar activity”. Besides, the CC50 in data set [2] was 77.3 µM.

For `CN1CCN(Cc2ccc(NCCCCCCN3C[C@H](O)[C@@H](O)[C@H](O)[C@H]3CO)c([N+](=O)[O-])c2)CC1` [Compound 15, (2R,3R,4R,5S)-2-(hydroxymethyl)-1-(6-((4-((4-methylpiperazin-1-yl)methyl)-2-nitrophenyl)amino)hexyl)piperidine-3,4,5-triol], the half-maximal inhibitory concentration (IC50) in data set [1] (setting [5]) is 12.1 µM; in data set [3] (setting [6]), 150 µM. Further, the “IC50 (summary in words)” value in data set [1] is reported as “low micromolar activity”. In data set [2], this compound showed a CC50 above 1000 µM.

Take `OC[C@@H]1[C@@H](O)[C@H](O)[C@@H](O)CN1CCCCCCCCC1CCCO1` (stereo partly drawn) [Compound 1, (2R,3R,4R,5S)-2-(hydroxymethyl)-1-(8-(tetrahydrofuran-2-yl)octyl)piperidine-3,4,5-triol]: the IC50 amounted to 45.7 µM in data set [1] (setting [5]) and 69.6 µM in data set [3] (setting [6]). The same compound displayed a CC50 in data set [2] above 500 µM.

Regarding `O=[N+]([O-])c1cc(N2CCOCC2)ccc1NCCCCCCN1C[C@H](O)[C@@H](O)[C@H](O)[C@H]1CO` [Compound 8, (2R,3R,4R,5S)-2-(hydroxymethyl)-1-(6-((4-morpholino-2-nitrophenyl)amino)hexyl)piperidine-3,4,5-triol], the IC50 in data set [1] (setting [5]) and in data set [3] (setting [6]) was above 100 µM in each case. The same compound returned a cytotoxic concentration (CC50) in data set [2] above 1000 µM.

In the case of `CN(C)Cc1ccc(NCCCCCCN2C[C@H](O)[C@@H](O)[C@H](O)[C@H]2CO)c([N+](=O)[O-])c1` [Compound 11, (2R,3R,4R,5S)-1-(6-((4-((dimethylamino)methyl)-2-nitrophenyl)amino)hexyl)-2-(hydroxymethyl)piperidine-3,4,5-triol], the IC50 in data set [1] (setting [5]) and in data set [3] (setting [6]) was above 100 µM in each case. Further, in data set [2], the CC50 was above 1000 µM.

As for `OC[C@@H]1[C@@H](O)[C@H](O)[C@@H](O)CN1CCCCCCNc1ncc2[nH]cnc2n1` [Compound 20, (2R,3R,4R,5S)-1-(6-((7H-purin-2-yl)amino)hexyl)-2-(hydroxymethyl)piperidine-3,4,5-triol], the midpoint of cytotoxicity in data set [2], the CC50, lay at 832 µM. In data set [3] (setting [6]), the IC50 is above 100 µM.

Regarding `COC(C)(C)CCCCCCCCN1C[C@H](O)[C@@H](O)[C@H](O)[C@H]1CO` [Compound 2, (2R,3R,4R,5S)-2-(hydroxymethyl)-1-(9-methoxy-9-methyldecyl)piperidine-3,4,5-triol], the IC50 in data set [1] (setting [5]) was found to be 10.1 µM; in data set [3] (setting [6]), 12.6 µM. In data set [1], the “IC50 (summary in words)” value is on record as “low micromolar activity”. The cytotoxic concentration (CC50) in data set [2] is above 500 µM.

Regarding `COCCCCCCCCCN1C[C@H](O)[C@@H](O)[C@H](O)[C@H]1CO` [UV-4, (2R,3R,4R,5S)-2-(hydroxymethyl)-1-(9-methoxynonyl)piperidine-3,4,5-triol], the IC50 in data set [1] (Vero) and in data set [3] (Vero) was above 100 µM each time. The compound further came in with a CC50 in data set [2] above 1000 µM. The survival entry in data set [4] is “statistically significant survival benefit”.

Consider `[N-]=[N+]=Nc1ccc([N+](=O)[O-])c(NCCCCCCN2C[C@H](O)[C@@H](O)[C@H](O)[C@H]2CO)c1` [Compound 12, (2R,3R,4R,5S)-1-(6-((5-azido-2-nitrophenyl)amino)hexyl)-2-(hydroxymethyl)piperidine-3,4,5-triol], for which the concentration for half-maximal inhibition (IC50) in data set [1] (setting [5]) was 38.7 µM; in data set [3] (setting [6]), 94.6 µM. Also, the “IC50 (summary in words)” value in data set [1] is “low micromolar activity”. This compound registered a 50% cytotoxic concentration (CC50) in data set [2] of 140 µM.

On to `CCCCN1C[C@H](O)[C@@H](O)[C@H](O)[C@H]1CO` [UV-1, (2R,3R,4R,5S)-1-butyl-2-(hydroxymethyl)piperidine-3,4,5-triol], for which the IC50 in data set [3] (setting [6]) turned out to be 3 µM.
